Experimental data as given in US20120021434A1, “METHOD FOR TREATING B CELL REGULATED AUTOIMMUNE DISORDERS” (Synta Pharmaceuticals Corp., priority 2005, published 2012).

Tested on: p65
Assay: Western blot of THP-1 nuclear extracts: p65
Assay type: cell-based
Conditions: IFN-γ plus LPS or IFN-γ plus SAC
Procedure: The THP-1 cell, Jurkat cell and RAW264.7 cell line were obtained from American Type Culture Collection (Manassas, Va.). The THP-1 Jurkat cells were cultured in RPMI 1640 (ATCC, Manassas, Va.), supplemented with 10% FCS (ATCC, Manassas, Va.), and 1% penicillin/Streptomycin (Gibco-BRL, New York, N.Y.). The RAW264.7 cells were cultured in DMEM (ATCC, Manassas, Va.) supplemented with 10% FCS (ATCC, Manassas, Va.), and 1% penicillin/Streptomycin (Gibco-BRL, New York, N.Y.). The cells were stimulated with human or murine recombinant IFNγ (100 ng/ml) for 10 h followed by LPS (1 μg/ml) or SAC (0.025%) CpG ([…]) in the presence or absence of Compound 50 at different concentrations for an additional incubation.
THP-1 cells were suspended in 20 volumes of buffer A containing 10 mM KCl, 10 mM HEPES (pH 7.9), 1 mM MgCl2, 1 mM dithiothreitol (DTT), 0.1% Nonidet p40 (NP-40), and 0.5 mM phenylmethylsulfonyl fluoride (PMSF) and homogenized and centrifuged at 10,000 rpm at 4C afor 5 min. […]
Of the transcription factors that have been analyzed, two factors, ICSBP and c-Rel, seem to be affected by Compound 4/Compound 50 treatment. […]

Cc1cccc(/C=N/Nc2cc(N3CCOCC3)nc(OCCc3ccccn3)n2)c1 [Compound 50, N-(3-Methyl-benzylidene)-N′-[6-morpholin-4-yl-2-(2-pyridin-2-yl-ethoxy)-pyrimidin-4-yl]-hydrazine]
nuclear p65 protein: increased
